Assay results: ChEMBL document CHEMBL4627387, “Cucurbitane-Type Triterpenoids from the Vines of Momordica charantia and Their Anti-inflammatory Activities” (J Nat Prod, 2020)
Calls of active or inactive are those of the source. The calls are words filed in the database; no cut-off is given here.

Columns and labels:
[1] = tested on: Human immunodeficiency virus 1; test: Antiviral activity against HIV 1 NL4-3 infected in human MT4 cells assessed as reduction in viral replication and measured on day 3 post infection by Nano-glo luciferase reporter gene assay; assay type: functional, organism-based
RAW264.7 [2] = test: Cytotoxicity against mouse RAW264.7 cells assessed as reduction in cell viability after 24 hrs by alamarBlue assay; assay type: cell-based; conditions: RAW264.7, 24 h
RAW264.7 [3] = test: Antiinflammatory activity in mouse RAW264.7 cells assessed as inhibition of LPS-induced NO production incubated for 12 hrs by Griess reagent based assay; assay type: functional
[4] = Cytotoxicity against mouse RAW264.7 cells assessed as cell viability at 15 ug/ml after 24 hrs by alamarBlue assay relative to control; assay type: cell-based; conditions: read-out: Activity
MCF7 = test: Antiproliferative activity against human MCF7 cells assessed as reduction in cell viability after 48 hrs by alamarBlue assay; assay type: functional, cell-based
WiDr = test: Antiproliferative activity against human WiDr cells assessed as reduction in cell viability after 48 hrs by alamarBlue assay; assay type: functional, cell-based
HepG2 = test: Antiproliferative activity against human HepG2 cells assessed as reduction in cell viability after 48 hrs by alamarBlue assay; assay type: functional, cell-based
HEp-2 = test: Antiproliferative activity against human Hep2 cells assessed as reduction in cell viability after 48 hrs by alamarBlue assay; assay type: functional, cell-based

| SMILES | Activity [1] | IC50 (RAW264.7 [2]) [µM] | inhibition (INH) (RAW264.7 [3]) [%] | viability at 24 h, 15 ug/ml [4] [%] | Activity (MCF7) | Activity (WiDr) | Activity (HepG2) | Activity (HEp-2) |
| --- | --- | --- | --- | --- | --- | --- | --- | --- |
| COC(C)(C)/C=C/C[C@@H](C)[C@H]1CC[C@@]2(C)[C@@H]3[C@@H](O)C=C4[C@@H](CC[C@H](OC(=O)CC(=O)O)C4(C)C)[C@]3(C=O)CC[C@]12C | inactive | – | – | – | – | – | – | – |
| O=c1c(O)c(-c2ccc(O)c(O)c2)oc2cc(O)cc(O)c12 [QUERCETIN] | – | 4.2 | 88.9 | 142 | – | – | – | – |
| C[C@H](C/C=C/C(C)(C)O)[C@H]1CC[C@@]2(C)[C@@H]3[C@@H](O)C=C4[C@@H](CC[C@H](OC(=O)CC(=O)O)C4(C)C)[C@]3(C=O)CC[C@]12C | – | 16 | 77 | 53.8 | inactive | inactive | inactive | inactive |
| C/C=C/C(=O)O[C@H]1CC[C@@H]2C(=C[C@H](O)[C@@H]3[C@@]2(C=O)CC[C@]2(C)[C@@H]([C@H](C)C/C=C/C(C)(C)O)CC[C@@]32C)C1(C)C | – | 19.1 | 73.3 | 94.7 | inactive | inactive | inactive | inactive |
| CO[C@H]1C=C2[C@@H](CC[C@H](OC(=O)CC(=O)O)C2(C)C)[C@]2(C=O)CC[C@]3(C)[C@@H]([C@H](C)C/C=C/C(C)(C)O)CC[C@@]3(C)[C@H]12 | – | 24.4 | 51.2 | 125 | inactive | inactive | inactive | inactive |
| CCOC(C)(C)/C=C/C[C@@H](C)[C@H]1CC[C@@]2(C)[C@@H]3[C@@H](O)C=C4[C@@H](CC[C@H](OC(=O)CC(=O)O)C4(C)C)[C@]3(C=O)CC[C@]12C | – | 24 | 50.4 | 89.7 | inactive | inactive | inactive | inactive |
| CO[C@@H]1O[C@]23C=C[C@@H]4[C@@]1(CC[C@]1(C)[C@@H]([C@H](C)C/C=C/C(C)(C)O)CC[C@@]41C)[C@@H]2CC[C@H](OC(=O)CC(=O)O)C3(C)C | – | 29.1 | 42.6 | 113 | inactive | inactive | inactive | inactive |
| CO[C@@H](C=C(C)C)C[C@@H](C)[C@H]1CC[C@@]2(C)[C@@H]3[C@@H](O)C=C4[C@@H](CC[C@H](OC(=O)CC(=O)O)C4(C)C)[C@]3(C=O)CC[C@]12C | inactive | 16.1 | 68.8 | 61.9 | inactive | inactive | inactive | inactive |
| CO[C@H]1O[C@]23C=C[C@@H]4[C@@]1(CC[C@]1(C)[C@@H]([C@H](C)C/C=C/C(C)(C)O)CC[C@@]41C)[C@@H]2CC[C@H](OC(=O)CC(=O)O)C3(C)C | – | 11.3 | 66.1 | 59.6 | inactive | inactive | inactive | inactive |
| COC(=O)CC(=O)O[C@H]1CC[C@@H]2C(=C[C@H](O)[C@@H]3[C@@]2(C=O)CC[C@]2(C)[C@@H]([C@H](C)C/C=C/C(C)(C)O)CC[C@@]32C)C1(C)C | inactive | 20.3 | 65.1 | 67.6 | inactive | inactive | inactive | inactive |
| CO[C@H]1C=C2[C@@H](CC[C@H](O)C2(C)C)[C@]2(C=O)CC[C@]3(C)[C@@H]([C@H](C)C/C=C/C(C)(C)OC)CC[C@@]3(C)[C@H]12 | – | 35.6 | 35 | 90.5 | inactive | inactive | inactive | inactive |
| COC(=O)CC(=O)O[C@H]1CC[C@@H]2C(=C[C@H](O)[C@@H]3[C@@]2(C=O)CC[C@]2(C)[C@@H]([C@H](C)C/C=C/C(C)(C)OC)CC[C@@]32C)C1(C)C | inactive | 15.6 | 64.3 | 69 | inactive | inactive | inactive | inactive |
| CO[C@H]1C=C2[C@@H](CC[C@H](OC(=O)CC(=O)O)C2(C)C)[C@]2(C=O)CC[C@]3(C)[C@@H]([C@H](C)C/C=C/C(C)(C)OC)CC[C@@]3(C)[C@H]12 | inactive | 22.1 | 56.5 | 72.4 | inactive | inactive | inactive | inactive |
